Like-named read-outs stand apart in the source and are kept apart here.
Experiments:
Type in all cases: in vivo, cattle
plasma FSH = test: Example I: plasma FSH by double-antibody radioimmunoassay after single iv dose; conditions: by 72 hours after single iv dose, doses combined; P<0.03
Description: Heifers in which a CL was detected during the initial examination were given […] cloprostenol (PGF, Estrumate™, Schering-Plough Animal Health, Pointe-Claire, QC, Canada) intramuscularly (im) to induce regression of the CL and to synchronize ovulation. Heifers were examined daily by transrectal ultrasonography to detect ovulation. Transvaginal ultrasound-guided follicular aspiration of follicles ≧5 mm was performed five to eight days after ovulation to synchronize wave emergence. Heifers were examined daily by transrectal ultrasonography to detect follicular wave emergence, which was expected 1 to 1.5 days after follicular ablation. […] For practical purposes, the dose of letrozole was calculated based on an average weight of 400 kg for all heifers. […]
Statistical analyses were done using the Statistical Analysis System software package (SAS Learning Edition 9.1, 2006; SAS Institute Inc., Cary, N.C., USA). Time-series hormone data, plasma letrozole concentration, and follicular diameter profiles were analyzed by repeated measures, using the PROC MIXED procedure. […]

[1] = Example I: plasma letrozole concentration (LC/MS/MS) and non-compartmental pharmacokinetics after single iv dose; conditions: for AUC(0-t): read-out: Area under the curve (AUClast); for Cmax: read-out: Maximal concentration (Cmax); for clearance: read-out: Systemic clearance (Cls) (converted); for half-life: read-out: Half-life (T1/2) (converted); for MRT: read-out: Mean residence time (MRT)
Description: Heifers in which a CL was detected during the initial examination were given […] cloprostenol (PGF, Estrumate™, Schering-Plough Animal Health, Pointe-Claire, QC, Canada) intramuscularly (im) to induce regression of the CL and to synchronize ovulation. Heifers were examined daily by transrectal ultrasonography to detect ovulation. Transvaginal ultrasound-guided follicular aspiration of follicles ≧5 mm was performed five to eight days after ovulation to synchronize wave emergence. Heifers were examined daily by transrectal ultrasonography to detect follicular wave emergence, which was expected 1 to 1.5 days after follicular ablation. Four days after follicular ablation (approximately 2.5 days after follicular wave emergence), and at the time follicular dominance becomes apparent, heifers were assigned randomly to the following treatment groups and given a single intravenous dose of 1) 500 μg/kg of letrozole (high dose group, n=9), 2) 250 μg/kg of letrozole (medium dose group, n=10), 3) 125 μg/kg of letrozole (low dose group, n=10), or 4) 20 ml of phosphate buffered saline (PBS control group, n=10). For practical purposes, the dose of letrozole was calculated based on an average weight of 400 kg for all heifers. The average oral dose used in women (2.5-5 mg per day for 5 days) was used to estimate the medium dose for cattle. The high and low doses were set as double and half the medium dose, respectively. The day of treatment was defined as Day 0. For intravenous injection, letrozole was prepared in 95% ethanol at a final concentration of 5 mg per ml, resulting in an injection volume of 10-40 ml. The experiment was performed in four replicates (n=2-3 per group per replicate) and each heifer was used only once.
Blood samples were collected by jugular or coccygeal venipuncture into 10 ml heparinized vacuum tubes (Becton Dickinson Vacutainer Systems, Franklin Lakes, N.J., USA). Blood samples were collected at 0, 0.25, 0.5, 1, 1.5, 2, 3, 4, 6, 8, 12, 24, 36, 48 hours post-treatment using an indwelling jugular catheter as previously described and daily thereafter to the first post-treatment ovulation. Blood samples were centrifuged at 1500×g for 20 minutes; plasma was separated and stored in plastic tubes at −20° C.
Plasma concentrations of letrozole were determined using high performance liquid chromatography tandem mass spectrometry (LC/MS/MS). To extract letrozole from the samples, 250 μL of a buffer solution (0.1M ammonium) were added to 250 μL of plasma followed by the addition of 5 mL of methyl t-butyl ether (MTBE) and vortexed for 15 seconds. The organic layer was removed by pipetting and transferred to a fresh 15 mL plastic tube. This second tube was dried by gentle nitrogen gas flow. The dried extract was reconstituted in 1 mL of 100% ethanol, sonicated for 5 minutes and transferred to a labelled vial for further analysis. Separation was accomplished by HPLC (Agilent 1200, Santa Clara, Calif., USA) fitted with an analytical column (50×2.1 mm, 3 μm particle size; Thermo Scientific Betasil C18, Waltham, Mass., USA) operated at 35° C. Gradient conditions were used at a flow rate of 250 μL/min, starting at 85% A (0.1% acetic acid) and 15% B (0.1% acetic acid in acetonitrile). Initial conditions were held for 2 min and then ramped to 100% B at 6 min, held until 9 min, decreased to 0% B at 11 minutes, and returned to initial conditions at 13 minutes, and held constant until 15 minutes. Mass spectra were collected using a tandem mass spectrometer (Applied Bioscience SCIEX 3000, Foster City, Calif., USA) fitted with an electrospray ionization source, operated in the negative ionization mode. Chromatograms were recorded using multiple reaction monitoring (MRM) mode, where at least two transitions per-analyte were monitored. […]

plasma estradiol = test: Example II: plasma estradiol during 3-day letrozole regimen; conditions: 3-day regimen, regardless of stage of follicular development
Description: For practical purposes, the total dose of letrozole (250 μg/kg) was calculated on the basis of an average weight of 350 kg for all heifers and administered intravenously in daily divided doses over 3 days (85 μg/kg per day). For intravenous injection, letrozole was prepared in 95% ethanol to a final concentration of 5 mg/ml, resulting in an injection volume of 6 mL/day.
Plasma estradiol concentrations were determined in duplicate by enzyme-linked immunosorbent assay (Cayman Chemical Company, Ann Arbor, Mich., USA). In this competitive ELISA, plasma steroid competes with acetylcholinesterase labelled steroid for the binding site on the polyclonal rabbit anti-steroid antibody. The antiserum to estradiol was reported to cross-react with estradiol-3-glucoronide (14%), estrone (12%), and estriol (0.3%). For all other steroids cross-reactivities were reported as <0.1%. The minimum and maximum values along the standard curve were 6.6 and 4000 pg/well, respectively. The intra- and inter-assay coefficients of variation for reference samples assayed in duplicate were 11.7% and 12.7, respectively.
For the same reasons, estradiol concentrations were transformed to a percentage of the mean concentration of two pre-treatment data points (i.e. for each individual heifer before statistical analysis.

plasma LH = test: Example III: plasma LH after letrozole IV or IM; conditions: 1 mg/kg IV or IM vs placebo
Description: Ovarian cyclicity in heifers was synchronized using transvaginal ultrasound-guided follicular ablation followed by a double dose of PGF 4 days after ablation. The ovaries were examined daily by transrectal ultrasonography to detect ovulation. Three days after ovulation, heifers were assigned randomly to four treatment groups and given letrozole at a dose of 1 mg/kg intravenously (in benzyl alcohol, n=10) or intramuscularly (in benzyl alcohol plus canola oil 1:1 v/v, n=10), or given a placebo intravenously (benzyl alcohol, n=5) or intramuscularly (benzyl alcohol plus canola oil 1:1 v/v, n=5). Ovarian structures were monitored by ultrasonography and blood samples were collected by jugular venipuncture twice daily from pre-treatment to post-treatment ovulations. Comparisons among groups were made by one-way ANOVA for single-point measurements and by ANOVA for repeated measures for time-series data.
Blood samples collected daily from treatment to post-treatment ovulation.
Endpoints are: Follicular diameter profiles; CL diameter profile; Circulating progesterone concentration; Circulating FSH and LH profiles; Letrozole profile and bioavailability; Circulating estradiol concentration Follicular fluid estradiol concentration).

[2] = female, bovine, plasma, 125 ug/kg, 125 μg/kg single iv, n=9
[3] = female, bovine, plasma, 250 ug/kg, 250 μg/kg single iv, n=9
[4] = female, bovine, plasma, 500 ug/kg, 500 μg/kg single iv, n=9
[5] = female, bovine, plasma, iv, 125 ug/kg, 125 μg/kg single iv, n=9
[6] = female, bovine, plasma, iv, 250 ug/kg, 250 μg/kg single iv, n=9
[7] = female, bovine, plasma, iv, 500 ug/kg, 500 μg/kg single iv, n=9
[8] = female, bovine, plasma, iv, doses combined

N#Cc1ccc(C(c2ccc(C#N)cc2)n2cncn2)cc1 [Letrozole, letrozole]
plasma FSH concentrations compared to controls (plasma FSH): lower | mean circulating level of letrozole during the first 96 hours ([1]; 250 μg/kg, single application): 112 ± 16.26 ng/mL | Half-life (T1/2) ([1]; doses combined): 27.3 ± 0.42 h | AUC(0-t) [1, 2]: 8.8 ± 0.72 µg·h/mL | Cmax [1, 2]: 1.2 ± 0.25 µg/mL | clearance [1, 2]: 0.0146 L/h/kg | AUC(0-t) [1, 3]: 17.3 ± 2 µg·h/mL | Cmax [1, 3]: 1.7 ± 0.18 µg/mL | clearance [1, 3]: 0.0155 L/h/kg | AUC(0-t) [1, 4]: 28.1 ± 2.15 µg·h/mL | Cmax [1, 4]: 2.5 ± 0.37 µg/mL | clearance [1, 4]: 0.0185 L/h/kg | concentration at 96 hours ([1]; female, bovine, plasma, intravenous, 250 μg/kg given in a single dose, read-out: mean concentration of letrozole in the circulation at 96 hours): 0.0437 ± 0.00879 µg/mL | half-life [1, 5]: 26.9 ± 0.95 h | MRT [1, 5]: 31.7 ± 2 h | half-life [1, 6]: 26.6 ± 1.18 h | MRT [1, 6]: 33.7 ± 2.98 h | half-life [1, 7]: 28.5 ± 1.05 h | MRT [1, 7]: 35.8 ± 1.43 h | AUC(0-t) [1, 8]: 18.2 ± 4.03 µg·h/mL | half-life [1, 8]: 27 h | Cmax [1, 8]: 1.8 ± 0.27 µg/mL | MRT [1, 8]: 34 h | clearance [1, 8]: 0.0162 L/h/kg | mean plasma letrozole concentration throughout the 8-day period ([1]; high dose 500 μg/kg iv): 0.63 ± 0.04 µg/mL | mean plasma letrozole concentration throughout the 8-day period ([1]; low dose 125 μg/kg iv): 0.27 ± 0.04 µg/mL | mean plasma letrozole concentration throughout the 8-day period ([1]; medium dose 250 μg/kg iv): 0.44 ± 0.04 µg/mL | plasma estradiol concentrations compared to control heifers (plasma estradiol): not different | plasma LH concentrations among groups (plasma LH): did not differ

— US9144569B2, “Methods of administering an aromatase inhibitor, prostaglandin and GnRH for regulating ovulation in cattle” (UNIVERSITY OF SASKATCHEWAN, priority 2010, dated 2015)
